Values of other authors in patent US20080051459A1, “LONG TERM 24-HOUR INTESTINAL ADMINISTRATION OF LEVODOPA/CARBIDOPA” (Solvay Pharmaceuticals GmbH, priority 2006, published 2008).

Test system: patient
Settings: one patient; from 86 to 100 mg/hour in about 5 weeks

In the case of `N[C@@H](Cc1ccc(O)c(O)c1)C(=O)O` [levodopa], the “Increase in administration rate (dose requirement)” value is listed as 16%.
